Measurements as given in US10077261B2, “Imidazolin-5-one derivative useful as FASN inhibitors for the treatment of cancer” (Janssen Pharmaceutica NV, priority 2012, dated 2018).

Tests used:
[1] = target: T1, hFASN enzyme (full length) (Homo sapiens, UniProt P49327); test: Fatty Acid Synthase (FASN) inhibition scintillation proximity assay; assay type: biochemical; details: for inhibition at 10 µM: read-out: Human FASN % inhibition @ 10 μM, 10 μM test compound; for IC50: read-out: Human FASN pIC50 (converted)
T1 construct: 10 μL hFASN enzyme (full length, 300 ng, purified in house); made in house
In short: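 Full-length in-house purified enzyme (300 ng) was tested in 100 mM KH2PO4 pH 7.5, 1 mM DTT with ³H-acetyl-CoA and malonyl-CoA as substrates; compounds ranged 0.01–30 μM. Reactions were stopped with streptavidin imaging beads, read by LEADseeker at 610 nm, and fitted to a 4-parameter logistic curve.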

[2] = target: Fatty Acid Synthase Keto-reductase Domain (FASN KR) (Homo sapiens, UniProt P49327); test: Fatty Acid Synthase keto-reductase domain (FASN KR) inhibition, NADPH oxidation at 340 nm
Procedure: After 20 minutes incubation at room temperature the plate was measured again (T2).
The decrease in absorbance was calculated as (Absorbance before incubation T1)−(Absorbance following incubation T2).
A plot of Controlmin versus test compound concentration was fitted to a 4-parameter logistic curve using a non-linear least squares regression method.

[3] = system: PC-3M-Luc-C6 prostate cells; test: In vitro PC-3M-Luc-C6 prostate cell proliferation assay in lipid reduced medium; assay type: cell-based; details: 96 h, read-out: pIC50 PC-3M-Luc-C6 prostate cell (converted)
[4] = system: LNCaP-Vancouver prostate cells; test: In vitro LNCaP Vancouver prostate cell proliferation assay in lipid reduced medium; assay type: cell-based; details: read-out: pIC50 LNCaP_Vancouver prostate cell (converted)
[5] = system: A2780 ovarian cells; test: A2780 ovarian cell proliferation assay in lipid reduced medium, without palmitate (MTT); assay type: cell-based; details: Homo sapiens, A2780, 96 h; read-out: pIC50 A2780 Ovarian Cell, Without Palmitate (converted)
[6] = system: A2780 ovarian cells; test: A2780 ovarian cell proliferation assay in lipid reduced medium, with palmitate (MTT); assay type: cell-based; details: Homo sapiens, A2780, 96 h; read-out: pIC50 A2780 Ovarian Cell, With Palmitate (converted)
In short: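 Seeded cells were switched next day to lipid-reduced serum, exposed to compound and 25 μM palmitate complexed with fatty-acid-free BSA, and incubated 96 h. Proliferation was then determined by MTT absorbance at 544 nm, with a best-fit curve of signal against concentration.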

T1 sequence (P49327 whole entry): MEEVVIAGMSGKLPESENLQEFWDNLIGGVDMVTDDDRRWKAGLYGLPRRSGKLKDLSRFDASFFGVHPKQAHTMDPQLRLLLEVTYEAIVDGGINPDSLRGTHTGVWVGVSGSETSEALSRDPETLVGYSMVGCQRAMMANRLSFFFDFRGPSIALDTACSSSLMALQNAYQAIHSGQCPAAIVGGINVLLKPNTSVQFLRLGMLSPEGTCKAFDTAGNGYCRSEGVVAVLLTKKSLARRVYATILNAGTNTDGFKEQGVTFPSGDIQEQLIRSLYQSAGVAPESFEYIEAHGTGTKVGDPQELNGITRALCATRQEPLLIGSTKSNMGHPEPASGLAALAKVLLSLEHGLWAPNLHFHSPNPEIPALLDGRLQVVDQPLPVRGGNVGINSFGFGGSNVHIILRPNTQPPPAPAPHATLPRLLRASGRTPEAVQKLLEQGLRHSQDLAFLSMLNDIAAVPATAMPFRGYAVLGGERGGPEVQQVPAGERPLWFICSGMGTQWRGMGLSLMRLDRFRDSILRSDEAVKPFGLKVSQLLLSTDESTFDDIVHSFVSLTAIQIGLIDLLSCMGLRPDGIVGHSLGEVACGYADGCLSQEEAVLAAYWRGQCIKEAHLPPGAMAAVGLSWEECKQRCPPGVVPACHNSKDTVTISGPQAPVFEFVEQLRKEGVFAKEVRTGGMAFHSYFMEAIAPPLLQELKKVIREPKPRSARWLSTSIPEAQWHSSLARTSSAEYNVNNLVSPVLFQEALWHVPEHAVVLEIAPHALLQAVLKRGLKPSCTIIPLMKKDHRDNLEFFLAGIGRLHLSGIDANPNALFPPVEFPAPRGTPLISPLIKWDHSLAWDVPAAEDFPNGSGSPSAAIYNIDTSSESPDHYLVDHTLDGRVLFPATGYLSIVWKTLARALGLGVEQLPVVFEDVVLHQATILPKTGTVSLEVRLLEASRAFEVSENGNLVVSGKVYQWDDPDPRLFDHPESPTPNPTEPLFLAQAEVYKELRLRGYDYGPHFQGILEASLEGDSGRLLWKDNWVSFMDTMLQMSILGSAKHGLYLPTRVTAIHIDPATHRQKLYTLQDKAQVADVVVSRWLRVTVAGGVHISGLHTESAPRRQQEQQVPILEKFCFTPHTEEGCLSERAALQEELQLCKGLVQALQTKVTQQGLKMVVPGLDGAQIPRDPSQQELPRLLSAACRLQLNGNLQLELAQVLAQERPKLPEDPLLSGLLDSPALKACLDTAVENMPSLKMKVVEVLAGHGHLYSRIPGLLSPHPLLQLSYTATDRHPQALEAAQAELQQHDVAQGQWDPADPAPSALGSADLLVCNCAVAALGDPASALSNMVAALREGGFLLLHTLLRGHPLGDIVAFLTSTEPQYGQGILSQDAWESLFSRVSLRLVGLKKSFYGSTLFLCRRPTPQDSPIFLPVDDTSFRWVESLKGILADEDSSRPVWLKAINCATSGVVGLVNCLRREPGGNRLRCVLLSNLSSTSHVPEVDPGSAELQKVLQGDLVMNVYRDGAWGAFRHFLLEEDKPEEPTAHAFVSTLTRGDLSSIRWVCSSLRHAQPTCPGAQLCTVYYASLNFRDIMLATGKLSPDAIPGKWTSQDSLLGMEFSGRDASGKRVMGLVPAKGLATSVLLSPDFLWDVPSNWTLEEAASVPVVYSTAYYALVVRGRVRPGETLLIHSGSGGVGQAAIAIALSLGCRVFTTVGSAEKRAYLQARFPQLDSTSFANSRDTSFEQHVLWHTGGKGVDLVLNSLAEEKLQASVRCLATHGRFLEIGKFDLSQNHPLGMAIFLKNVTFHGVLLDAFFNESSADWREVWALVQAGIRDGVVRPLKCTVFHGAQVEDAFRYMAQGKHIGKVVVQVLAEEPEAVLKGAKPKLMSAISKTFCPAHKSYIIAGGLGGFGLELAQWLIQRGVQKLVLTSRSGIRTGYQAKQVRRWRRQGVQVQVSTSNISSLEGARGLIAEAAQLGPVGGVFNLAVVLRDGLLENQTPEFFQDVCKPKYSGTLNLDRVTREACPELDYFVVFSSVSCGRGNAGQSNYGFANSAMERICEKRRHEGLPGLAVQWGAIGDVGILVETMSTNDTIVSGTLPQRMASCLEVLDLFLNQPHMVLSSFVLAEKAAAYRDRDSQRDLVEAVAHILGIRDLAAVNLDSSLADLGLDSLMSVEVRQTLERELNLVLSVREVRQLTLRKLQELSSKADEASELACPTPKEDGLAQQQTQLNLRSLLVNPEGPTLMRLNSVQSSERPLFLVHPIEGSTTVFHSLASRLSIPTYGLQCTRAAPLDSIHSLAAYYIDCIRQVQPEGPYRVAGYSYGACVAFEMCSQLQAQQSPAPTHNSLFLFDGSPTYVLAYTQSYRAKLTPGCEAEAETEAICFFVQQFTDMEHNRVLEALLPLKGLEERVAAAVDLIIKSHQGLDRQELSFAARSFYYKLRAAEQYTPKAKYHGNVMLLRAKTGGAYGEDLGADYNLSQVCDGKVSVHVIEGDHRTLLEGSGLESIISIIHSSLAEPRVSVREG
Sequence of Fatty Acid Synthase Keto-reductase Domain (FASN KR) (P49327 whole entry, the tested form may be a part): as the sequence (P49327 whole entry) above

SMILES	inhibition at 10 µM [1]	IC50 [1]	IC50 [2]	IC50 [3]	IC50 [4]	IC50 [5]	IC50 [6]
O=C(C1CC1)N1CC[C@@H](CN2C(=O)C3(CC3)N=C2c2ccc(-c3ccc4[nH]c(CO)cc4c3)cc2)C1 [compound 216, (R)-6-((1-(cyclopropanecarbonyl)pyrrolidin-3-yl)methyl)-5-(4-(2-(hydroxymethyl)-1H-indol-5-yl)phenyl)-4,6-diazaspiro[2.4]hept-4-enn-7-one]	102%	0.0288 µM	0.049 µM	~0.0537 µM	0.162 µM	0.0631 µM	> 10 µM
Cn1cc(-c2ccc(-c3ccc(C4=NC5(CC5)C(=O)N4CC4CN(C(=O)C5CC5)C4)cc3)nc2)cn1 [compound 534, 6-{[1-(Cycloprropylcarbonyl)azetidin-3-yl]methyl}-5-{4-[5-(1-methyl-1H-pyrazol-4-yl)pyridin-2-yl]phenyl}-4,6-diazaspiro[2.4]hept-4-en-7-one]	95%	0.162 µM	1.38 µM	1 µM	~5.62 µM	0.776 µM	> 10 µM
Cn1cc(-c2ccc(-c3ccc(C4=NC5(CCOC5)C(=O)N4C[C@@H]4CCN(C(=O)[C@H]5CCCO5)C4)cc3)cc2)cn1 (stereo partly drawn) [compound 678, 2-[4′-(1-Methyl-1H-pyrazol-4-yl)biphenyl-4-yl]-3-({(3R)-1-[(2R)-tetrahydro-furan-2-ylcarbonyl]pyrrolidin-3-yl}methyl)-7-oxa-1,3-diazaspiro[4.4]non-1-en-4-one]	95%	0.372 µM	0.832 µM	0.891 µM	3.31 µM	0.676 µM	> 10 µM
Cn1ncc2cc(-c3ccc(C4=NC5(CCCC5)C(=O)N4C[C@@H]4CCN(C(=O)C5CC5)C4)c(F)c3)ccc21 [compound 880, (R)-3-((1-(cyclopropanecarbonyl)pyrrolidin-3-yl)methyl)-2-(2-fluoro-4-(1-methyl-1H-indazol-5-yl)phenyl)-1,3-diazaspiro[4.4]non-1-en-4-one]	101%	0.0794 µM	0.112 µM	0.117 µM	0.646 µM	0.0661 µM	> 10 µM
Cc1cc(C2=NC3(CC3)C(=O)N2C[C@@H]2CCN(C(=O)C3CC3)C2)ccc1-c1ccc2[nH]ccc2c1 [compound 238, (R)-5-(4-(1H-indol-5-yl)-3-methylphenyl)-6-((1-(cyclopropanecarbonyl)pyrrolidin-3-yl)methyl)-4,6-diazaspiro[2.4]hept-4-en-7-one]	98%	0.0437 µM	0.105 µM	0.0708 µM	0.245 µM	0.0427 µM	> 10 µM
Cc1cc(-c2ccc3c(cnn3C)c2)ccc1C1=NC2(CC2)C(=O)N1CC1CN(C(=O)C(C)(C)O)C1 [compound 495, 6-{[1-(2-Hydroxy-2-methylpropanoyl)azetidin-3-yl]methyl}-5-[2-methyl-4-(1-methyl-1H-indazol-5-yl)phenyl]-4,6-diazaspiro[2.4]hept-4-en-7-one]	95%	0.257 µM	0.724 µM	~0.589 µM	~3.24 µM	0.275 µM	> 10 µM
COCCN1CCC2(CC1)N=C(c1ccc(-c3ccc4[nH]ncc4c3)cc1)N(C[C@@H]1CCN(C(=O)C3CC3)C1)C2=O [compound 748, 3-{[(3R)-1-(Cyclopropylcarbonyl)pyrrolidin-3-yl]methyl}-2-[4-(1H-indazxol-5-yl)phenyl]-8-(2-methoxyethyl)-1,3,8-trisazaspiro[4.5]dec-1-en-4-one]	99%	0.355 µM	0.525 µM	0.575 µM	3.02 µM	~0.224 µM	> 10 µM
O=C(C1CC1)N1CC[C@@H](CN2C(=O)C3(CC3)N=C2c2ccc(-c3ccc4[nH]cc(CCO)c4c3)cc2)C1 [compound 217, (R)-6-((1-(cyclopropanecarbonyl)pyrrolidin-3-yl)methyl)-5-(4-(3-(2-hydroxyethyl)-1H-indol-5-yl)phenyl)-4,6-diazaspiro[2.4]hept-4-en-7-one]	103%	0.0288 µM	0.049 µM	0.0501 µM	0.178 µM	0.0302 µM	> 10 µM
Cc1cc(-c2cccc3[nH]ncc23)ccc1C1=NC2(CC2)C(=O)N1CC1CN(C(=O)C2CC2)C1 [compound 304, 5-(4-(1H-indazol-4-yl)-2-methylphenyl)-6-((1-(cyclopropanecarbonyl)azetidin-3-yl)methyl)-4,6-diazaspiro[2.4]hept-4-en-7-one]	99%	0.0977 µM	0.224 µM	0.0724 µM	1.26 µM	0.0851 µM	> 10 µM
O=C(C1CC1)N1CC(CN2C(=O)C3(CC3)N=C2c2ccc(-c3ccc4ccccc4c3)cc2F)C1 [compound 368, 6-((1-(1-cyclopropanecarbonyl)azetidin-3-yl)methyl)-5-(2-fluoro-4-(naphthalen-2-yl)phenyl)-4,6-diazaspiro[2.4]hept-4-en-7-one]	90%	0.0282 µM	0.0589 µM	0.0288 µM	0.214 µM	0.0214 µM	4.47 µM
Cc1cc(-c2ccc3[nH]ccc3c2)ccc1C1=NC2(CC2)C(=O)N1C[C@@H]1CCN(C(=O)C2CC2)C1 [compound 284, (R)-5-(4-(1H-indol-5-yl)-2-methylphenyl)-6-((1-(cyclopropanecarbonyl)pyrrolidin-3-yl)methyl)-4,6-diazaspiro[2.4]hept-4-en-7-one]	106%	0.0257 µM	0.0309 µM	0.0182 µM	0.038 µM	~0.0234 µM	> 10 µM
Cc1cc(-c2ccc3c(cnn3C)c2)ccc1C1=NC2(CC2)C(=O)N1C[C@@H]1CCN(C(=O)C2(C)CC2)C1 [compound 265, (R)-5-(2-methyl-4-(1-methyl-1H-indazol-5-yl)phenyl)-6-((1-(1-methylcyclopropanecarbonyl)pyrrolidin-3-yl)methyl)-4,6-diazaspiro[2.4]hept-4-en-7-one]	103%	0.0457 µM	~0.0537 µM	~0.00708 µM	0.0138 µM	~0.00288 µM	> 10 µM
O=C(C1CC1)N1CC[C@@H](CN2C(=O)C3(CC3)N=C2c2ccc(-c3ccc4[nH]ccc4c3)s2)C1 [compound 423, 6-{[(3R)-1-(Cyclopropylcarbonyl)pyrrolidin-3-yl]methyl}-5-[5-(1H-indol-5-yl)thiophen-2-yl]-4,6-diazaspiro[2.4]hept-4-en-7-one]	90%	0.316 µM	0.55 µM	1.35 µM	2.57 µM	1.29 µM	> 10 µM
O=C(C1CC1)N1CC[C@@H](CN2C(=O)C3(CC3)N=C2c2ccc(-c3ccc4c(c3)N=CC4)s2)C1 [compound 426, 6-{[(3R)-1-(Cyclopropylcarbonyl)pyrrolidin-3-yl]methyl}-5-[5-(3H-indol-6-yl)thiophen-2-yl]-4,6-diazaspiro[2.4]hept-4-en-7-one]	94%	0.347 µM	0.708 µM	1.74 µM	2.34 µM	2.34 µM	> 10 µM
Cc1[nH]c2ccc(-c3ccc(C4=NC5(CC5)C(=O)N4C[C@@H]4CCN(C(=O)C5CC5)C4)cc3)cc2c1C [compound 213, (R)-6-((1-(cyclopropanecarbonyl)pyrrolidin-3-yl)methyl)-5-(4-(2,3-dimethyl-1H-indol-5-yl)phenyl)-4,6-diazaspiro[2.4]hept-4-en-7-one]	95%	0.0468 µM	0.0759 µM	~0.112 µM	0.355 µM	0.115 µM	> 10 µM
O=C(C1CC1)N1CC(CN2C(=O)C3(CCOC3)N=C2c2ccc(-c3ccc4cccnc4c3)cc2)C1 (centres unmarked) [compound 714, 3-{[1-(Cycloprppylcarbonyl)azetidin-3-yl]methyl}-2-(4-quinolin-7-ylphenyl)-7-oxa-1,3-diazaspiro[4.4]non-1-en-4-one]	89%	0.363 µM	1.51 µM	0.794 µM	5.25 µM	0.933 µM	> 10 µM
O=C(N1CCCC1)N1CC[C@@H](CN2C(=O)C3(CCOC3)N=C2c2ccc(-c3ccc4cccnc4c3)cc2)C1 (stereo partly drawn) [compound 685, 3-{[(3S)-1-(Pyrrolidin-1-ylcarbonyl)pyrrolidin-3-yl]methyl}-2-(4-quinolin-7-ylphenyl)-7-oxa-1,3-diazaspiro[4.4]non-1-en-4-one]	84%	0.851 µM	1.62 µM	1.17 µM	3.02 µM	1.23 µM	> 10 µM
